Results from patent publication US6413974B1, “6,9,-disubstituted 2-[trans-(4-aminocyclohexyl) amino] purines” (Aventis Pharmaceuticals Inc., priority 1998, dated 2002).
Where “and” joins values, the source holds several entries; their conditions need not be identical. Identical values can stand only once. Counter-ions that a name gives are not always drawn. Like-named read-outs stand apart in the source and are kept apart here.

How the values were obtained:
DMS-114 = assay: In vitro tumor cell proliferation, DMS-114; assay type: cell-based, human; conditions: read-out: In vitro Tumor Cell Proliferation (IC50, μM) Lung DMS-114
Description: (§1) The proliferation of tumor cells was measured using a sulforhodamine B assay as described in Skehan, P., et al., J. Natl. Cancer Inst. […] Tumor cells were harvested with trypsin-EDTA, cells that excluded trypan blue were counted, added to 96-well plates and incubated overnight at 37° C. Drug was added to the wells following dilution in culture medium. Three days later, the medium was removed and replenished with medium containing fresh drug and incubated an additional 4 days. The cells were then fixed with 0.1 ml 10% trichloroacetic acid for 60 min at 4° C. The plates were rinsed five times with tap water, air-dried and stained for 30 min with 0.4% sulforhodamine B in 1% acetic acid and air-dried.
(§2) Alternatively, the CyQUANT cell proliferation assay was used to quantify tumor cell proliferation. Tumor cells were harvested with trypsin-EDTA, cells that excluded trypan blue were counted, added to 96-well plates and incubated overnight at 37° C. Drug was added to the wells following dilution in culture medium. Three days later the medium was removed and the plates frozen at −80° C. for at least 30 minutes.

DU 145 = assay: In vitro tumor cell proliferation, DU 145; assay type: cell-based, human; conditions: read-out: In vitro Tumor Cell Proliferation (IC50, μM) Prostate DUI45
Description: as §1, §2

Colo-205 = assay: In vitro tumor cell proliferation, Colo-205; assay type: cell-based, human; conditions: read-out: In vitro Tumor Cell Proliferation (IC50, μM) Colon Colo-205
Description: as §1, §2

cdk4/cyclin D1 = biological target: T1, cdk4/cyclin D1 (Homo sapiens, UniProt P11802); assay: Cyclin-dependent kinase 4 Assay; assay type: biochemical; conditions: cdk4/cyclin D1, GST-Rb substrate, 10 μM ATP, 30 min at 37° C.; read-out: CDK4 Inhibition IC50
T1 construct: made in house; host or cells: Sf9 insect cells (Bac-to-Bac baculovirus, pFastBac)
Description: The IC50 values for cdk-4 inhibition were by the following method:
(§3) The transformed bacteria were grown overnight to saturation, then diluted in YT broth and incubated at 37° C. for 2 h. The protein was induced by incubation with 0.1 mM isopropylthioglycoside for 3 h. Following sedimentation by centrifugation, the cells were lysed by sonication in STE buffer ([…] NaCl, 10 mM Tris, pH 8.0, 1 mM EDTA) containing 10% sarkosyl. Particulate matter was removed by centrifugation and the lysate was incubated with glutathione-Sepharose at 4° C. The beads were washed with kinase buffer and then quantitation of Coomassie blue-stained proteins separated by SDS-PAGE was performed using a protein standard of known concentration.
The cDNA for human cyclin D1 was cloned by RT PCR using […] from MCF-7 cells. […] Bacmid DNA was used to transfect Sf9 insect cells to produce recombinant virus. Following plaque purification of the virus, the viral preparations were amplified until high titer stocks were acheived.
Lysates were prepared by lysis of Sf9 cells coinfected with cdk4 and cyclin D1 in 50 mM HEPES, pH 7.5, 10 mM MgCl2, 1 mM DTT, 0.1 mM phenylmethylsulfonyl fluoride, 5 μg/ml aprotinin, and 5 μg/ml leupeptin using a PARR bomb under 500 p.s.i nitrogen pressure for 5 min at 4° C. Insoluble material was sedimented at 10,000×g for 20 min at 4° C. Glycerol was added to the supernatant to 10% and stored at −80° C. in aliquots.
(§4) Pre-wet Millipore Multiscreen 96-well filter plates (0.65 μm Durapore filters) with 200 μl kinase buffer (50 mM HEPES, pH 7.5, 10 mM MgCl2, 1 mM EGTA). GST-Rb (0.5 μg) bound to glutathione-Sepharose beads is added in 50 μl per well and the solution removed by application of vacuum. […] Add 0.1 μg cdk4/cyclin D1 (insect cell lysate) to initiate assay. Incubate 30 min at 37° C. Terminate reaction by filtration on Millipore Vacuum Manifold. Wash four times with TNEN (20 mM Tris, pH 8.0, 100 mM Na Cl, 1 mM EDTA, 0.5% nonidet P-40). After drying the plates at room temperature, the filter plates were placed in adapter plates (Packard) and 40 μl of Microscint-O® (Packard) was added to each well. Top Seal A film was used to cover the plates before counting in a Top Count Scintillation Counter.

MDA-MB-231 = assay: In vitro tumor cell proliferation, MDA-MB-231; assay type: cell-based, human; conditions: read-out: In vitro Tumor Cell Proliferation (IC50, μM) Breast MDA-MB-231
Description: as §1, §2

cdk2/cyclin E = biological target: T2, cdk2/cyclin E (Homo sapiens, UniProt P24941); assay: Cyclin-Dependent Kinase 2 Assay (cdk-2 inhibition); assay type: biochemical; conditions: GST-Rb substrate, 30 min at 30° C.
T2 construct: made in house; host or cells: insect cells (baculovirus co-infection)
Description: as §3, §4
GST-Rb as described above for cdk4/cyclin D1
Assay conditions for cdk2/cyclin E were identical to those for cdk4/cyclin D1 including the substrate. The concentration of recombinant cdk2/cyclin E in the assay was 0.1 μg per 100 μl assay. Incubation was for 30 min at 30° C.

HT-29 = assay: In vitro tumor cell proliferation, HT-29; assay type: cell-based, human; conditions: read-out: In vitro Tumor Cell Proliferation (IC50, μM) Colon HT-29 (converted)
Description: as §1, §2
HT-29 is a human colon adenocarcinoma, moderately well-differentiated grade II (HTB 38);

MDA-MB-435 = assay: In vitro tumor cell proliferation, MDA-MB-435; assay type: cell-based, human; conditions: read-out: In vitro Tumor Cell Proliferation (IC50, μM) Breast MDA-MB-435
Description: as §1, §2

PC-3 = assay: In vitro tumor cell proliferation, PC-3; assay type: cell-based, human; conditions: read-out: In vitro Tumor Cell Proliferation (IC50, μM) Prostate PC-3
Description: as §1, §2

A549 = assay: In vitro tumor cell proliferation, A549; assay type: cell-based, human; conditions: read-out: In vitro Tumor Cell Proliferation (IC50, μM) Lung A549
Description: as §1, §2

[1] = Homo sapiens, DMS-114, values marked * (mark not explained)
[2] = Homo sapiens, DU-145, values marked * (mark not explained)
[3] = Homo sapiens, COLO 205, values marked * (mark not explained)
[4] = values marked * (mark not explained), dihydrochloride
[5] = Homo sapiens, MDA-MB-231, values marked * (mark not explained)
[6] = Homo sapiens, HT-29, values marked * (mark not explained)
[7] = Homo sapiens, MDA-MB-435, values marked * (mark not explained)
[8] = Homo sapiens, PC-3, values marked * (mark not explained)
[9] = Homo sapiens, A549, values marked * (mark not explained)

T1 sequence (P11802 whole entry): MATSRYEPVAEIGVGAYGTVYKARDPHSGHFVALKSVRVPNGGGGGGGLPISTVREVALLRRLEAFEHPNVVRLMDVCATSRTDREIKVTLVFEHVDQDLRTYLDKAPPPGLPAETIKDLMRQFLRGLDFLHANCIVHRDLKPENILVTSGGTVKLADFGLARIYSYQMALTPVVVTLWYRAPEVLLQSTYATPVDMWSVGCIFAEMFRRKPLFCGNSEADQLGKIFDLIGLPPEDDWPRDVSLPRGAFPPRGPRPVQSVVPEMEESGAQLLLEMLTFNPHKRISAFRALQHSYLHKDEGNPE
T1 sequence (P24385 whole entry partner): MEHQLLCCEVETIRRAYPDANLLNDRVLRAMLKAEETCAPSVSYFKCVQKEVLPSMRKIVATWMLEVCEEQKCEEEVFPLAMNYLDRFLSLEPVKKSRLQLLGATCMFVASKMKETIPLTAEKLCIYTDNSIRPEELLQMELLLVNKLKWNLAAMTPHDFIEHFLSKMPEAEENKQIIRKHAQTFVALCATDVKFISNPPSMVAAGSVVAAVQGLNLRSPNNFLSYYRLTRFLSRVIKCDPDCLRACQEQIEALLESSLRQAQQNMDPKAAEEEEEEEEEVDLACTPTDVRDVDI

IC50 (DMS-114; [1]) [µM] | IC50 (DU 145; [2]) [µM] | IC50 (DU 145; Homo sapiens, DU-145, values without *) [µM] | IC50 (Colo-205; [3]) [µM] | IC50 (Colo-205; [4]) [µM] | IC50 (cdk4/cyclin D1) | IC50 (MDA-MB-231; [5]) [µM] | IC50 (MDA-MB-231; [4]) [µM] | IC50 (cdk2/cyclin E) | IC50 (HT-29; [6]) [µM] | IC50 (MDA-MB-435; [7]) [µM] | IC50 (MDA-MB-435; [4]) [µM] | IC50 (DMS-114; [4]) [µM] | IC50 (PC-3; [8]) [µM] | IC50 (PC-3; [4]) [µM] | IC50 (HT-29; [4]) [µM] | IC50 (DU 145; [4]) [µM] | IC50 (A549; [9]) [µM] | IC50 (A549; [4]) [µM] | Compound
1.4 | 1.7 | 0.86 | 1.9 | 2.1 | 0.19 µM and 0.22 µM | 1.3 | 1.6 | 0.038 µM | 1.8 | 3.2 | 4.5 | – | – | – | – | – | – | – | CNc1nc(N[C@H]2CC[C@H](N)CC2)nc2c1ncn2C1CCCC1 [Example 28, 2-[Trans-(4-aminocyclohexyl)amino]-6-(methylamino)-9-cyclopentylpurine dihydrochloride]
15 | 10 | – | 6.4 | 6.2 | 0.3 µM and 0.2 µM | 6 | – | 0.22 µM | 11 | 8.7 | 9.4 | 11 | 7.9 | 6.1 | 12 | – | – | – | N[C@H]1CC[C@H](Nc2nc(NCCc3ccccn3)c3ncn(C4CCCC4)c3n2)CC1 [Example 12, 2-[Trans-(4-aminocyclohexyl)amino]-6-[2-(2-pyridyl)ethylamino]-9-cyclopentylpurine dihydrochloride]
5.6 | 6.7 | – | 5.6 | 6.6 | 0.49 µM and 1 µM | 7.4 | 8.6 | 0.08 µM and 0.06 µM | 10 | – | 10 | – | – | – | 7.3 | 4.4 | 10 | – | N[C@H]1CC[C@H](Nc2nc(NCCc3ccncc3)c3ncn(C4CCCC4)c3n2)CC1 [Example 31, 2-[Trans-(4-aminocyclohexyl)amino]-6-[(4-pyridyl)-2-ethylamino]-9-cyclopentylpurine dihydrochloride]
5.6 | 4.4 | – | 6.6 | 5.5 | 2.2 µM | 8.6 | 6 | 0.09 µM | 7.3 | 10 | 12 | – | – | – | 6 | 4.9 | 2.2 | – | N[C@H]1CC[C@H](Nc2nc(NCC(F)(F)F)c3ncn(C4CCCC4)c3n2)CC1 [Example 49, 2-[Trans-(4-aminocyclohexyl)amino]-6-[2,2,2-trifluoroethylamino]-9-cyclopentylpurine dihydrochloride]
8.7 | 12 | – | 11 | 8.6 | 0.6 µM and 0.9 µM | 6.5 | 6.6 | 0.14 µM | 10 | – | 11 | 10 | – | – | – | 6.7 | 11 | – | N[C@H]1CC[C@H](Nc2nc(NCCc3c[nH]c4ccccc34)c3ncn(C4CCCC4)c3n2)CC1 [Example 2, 2-[Trans-(4-aminocyclohexyl)amino]-6-[(3-indolyl)-2-ethylamino]-9-cyclopentylpurine dihydrochloride]
1.7 | 2.3 | – | 3.1 | 3.2 | 1.8 µM | 2.7 | 3.1 | 91 nM and 44 nM (2×) | 3.6 | 5.6 | 5.1 | – | – | – | – | 2.8 | – | – | N[C@H]1CC[C@H](Nc2nc(NNCC(F)(F)F)c3ncn(C4CCCC4)c3n2)CC1 [Example 52, 2-[Trans-(4-aminocyclohexyl)amino]-6-[2,2,2-trifluoroethylhydrazino]-9-cyclopentylpurine dihydrochloride]
22 | 17 | – | 17 | 16 | 0.058 µM and 0.067 µM | 19 | 22 | 0.046 µM | 34 | 44 | 27 | 20 | – | – | 29 | 21 | 24 | 15 | N[C@H]1CC[C@H](Nc2nc(NNCCO)c3ncn(C4CCCC4)c3n2)CC1 [Example 14, 2-[Trans-(4-aminocyclohexyl)amino]-6-[2-hydroxyethylhydrazino]-9-cyclopentylpurine dihydrochloride]
28 | 15 | – | – | – | 4 µM and 2.5 µM | 19 | 25 | 0.27 µM | 16 | 23 | 38 | 23 | 16 | – | > 20 | 17 | – | 10 | CCC(C)(CO)Nc1nc(N[C@H]2CC[C@H](N)CC2)nc2c1ncn2C1CCCC1 (some centres unmarked) [Example 23, dihydrochloride]
3.7 | 4.4 | – | – | – | 0.3 µM and 0.4 µM | 2.7 | 2.6 | 0.09 µM and 0.15 µM | 5.6 | 5.2 | 6 | 2.8 | 4.6 | 3.1 | 5.1 | 3.2 | – | – | N[C@H]1CC[C@H](Nc2nc(NCCCN3CCOCC3)c3ncn(C4CCCC4)c3n2)CC1 [Example 9, 2-[Trans-(4-aminocyclohexyl)amino]-6-[3-(4-morpholinyl)propylamino]-9-cyclopentylpurine dihydrochloride]
